64 compounds from patent publication US20230027929A1, “MrgprX2 Antagonists and Uses Thereof” (Dermira, Inc., priority 2019, published 2023) can be followed below.

Molecules are shown by their SMILES.

The target in the test is T1, hMrgpMRGPRX2 (Homo sapiens, UniProt Q96LB1).
T1 construct: expressed in transfected cells
T1 sequence (Q96LB1 1-330): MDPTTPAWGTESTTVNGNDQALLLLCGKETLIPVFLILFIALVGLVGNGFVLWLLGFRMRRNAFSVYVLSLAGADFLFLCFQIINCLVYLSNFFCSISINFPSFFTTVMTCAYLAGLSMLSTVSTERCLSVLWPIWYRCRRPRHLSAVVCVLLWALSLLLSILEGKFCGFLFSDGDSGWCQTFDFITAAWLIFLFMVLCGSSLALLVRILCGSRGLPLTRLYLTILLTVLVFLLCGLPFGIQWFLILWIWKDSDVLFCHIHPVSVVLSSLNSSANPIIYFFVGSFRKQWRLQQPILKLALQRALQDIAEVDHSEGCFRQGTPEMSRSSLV
The test is described as follows: FLIPR intracellular calcium mobilization, antagonist activity in recombinant hMrgpMRGPRX2 expressing cells. The class given is cell-based. The conditions noted are these: read-out: Human MrgprX2 Antagonist pIC50 (converted). The method, boiled down: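 Antagonist activity was read as inhibition of intracellular calcium mobilization (FLIPR) in recombinant cells expressing human MrgprX2. Potency was also checked in LAD-2 human mast cells with endogenous receptor, and orthologue activity in cells expressing mouse MrgprB2, mouse MrgprA1, and gerbil, Chinese hamster and cynomolgus orthologues.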
Turning to `O=C(Nc1ccc(Oc2cc(F)cc(F)c2)cn1)C1CC1` [Compound E017], the IC50 was 0.0794 µM.
As to `CCN(C[C@@H](O)C(F)(F)F)C(=O)Nc1cc(Oc2cccc(F)c2)ncn1` [Compound E291, 1-ethyl-3-[6-(3-fluorophenoxy)pyrimidin-4-yl]-1-[(2R)-3,3,3-trifluoro-2-hydroxy-propyl]urea], the IC50 was 0.891 µM.
On to `CCN(C[C@@H](O)C(F)(F)F)C(=O)Nc1ccc(Oc2cc(F)ccc2C#N)cn1` [Compound E129], for which the IC50 was 1.95 µM.
The value for `CC(C)C(=O)Nc1ccc(-c2cccc(F)c2)cn1` [Compound E166] was 0.0631 µM; that for `C[C@]1(C(=O)Nc2ccc(Oc3cc(F)cc(F)c3)cn2)CCCN1S(N)(=O)=O` [Compound E282] was 0.0275 µM.
The value for `CCN(C[C@@H](O)C(F)(F)F)C(=O)Nc1cnc(Oc2cccc(F)c2)cn1` [Compound E247] was 0.302 µM; that for `CC1(C)C(C(=O)Nc2cnc(Cl)cn2)C1(C)C` [Compound E214] was 0.1 µM; that for `O=C(Nc1cc(Oc2cc(F)cc(F)c2)ccn1)C1CC1` [Compound E144, N-[4-(3,5-difluorophenoxy)-2-pyridyl]cyclopropanecarboxamide] was 1 µM.
The value for `CC(C)C(=O)Nc1cnc(Oc2ccccc2)cn1` [Compound E217, 2-methyl-N-(5-phenoxypyrazin-2-yl)propanamide] was 7.94 µM; that for `CC1(C)CC1C(=O)Nc1cc(Cl)ccn1` (stereo not shown) [Compound E208] was 3.16 µM.
Consider `COc1ccc(NC(=O)C2C(C)(C)C2(C)C)nc1` [Compound E212], for which the IC50 is 0.02 µM.
The value for `CCN(C[C@@](C)(O)C(F)(F)F)C(=O)Nc1cnc(Oc2ccc(F)cc2F)cn1` [Compound E258] was 0.00155 µM; that for `CCN(C[C@@H](O)C(F)(F)F)C(=O)Nc1cc(Oc2ccc(F)c(F)c2)ncn1` [Compound E289, 3-[6-(3,4-difluorophenoxy)pyrimidin-4-yl]-1-ethyl-1-[(2R)-3,3,3-trifluoro-2-hydroxy-propyl]urea] was 0.724 µM; that for `O=C(Nc1ccc(Oc2cccc(F)c2)cn1)C1(C(F)(F)F)CC1` [Compound E012] was 0.398 µM.
As for `CC1(C)C(C(=O)Nc2cc(Oc3ccc(F)nc3)ccn2)C1(C)C` [Compound E148, N-[4-[(6-fluoro-3-pyridyl)oxy]-2-pyridyl]-2,2,3,3-tetramethyl-cyclopropanecarboxamide], the figure is 0.0302 µM.
As for `CCN(C[C@@H](O)C(F)(F)F)C(=O)Nc1ccc(Oc2cc(F)ccc2F)cn1` [Compound E123], the figure is 0.00339 µM.
As to `CC1(C)CC(C(=O)Nc2ccc(Oc3ccc(F)c(F)c3)cn2)C1` [Compound E059], the IC50 was 0.2 µM.
The value for `CC(C)C(=O)Nc1ccc(Oc2cccc(C#N)c2)cn1` [Compound E018] was 6.31 µM.
The value for `CCN(C[C@@H](OC)C(F)(F)F)C(=O)Nc1cnc(Oc2ccc(F)cc2F)cn1` [Compound E261] was 0.38 µM.
`CC1(C)CCC1C(=O)Nc1ccc(Oc2ccc(F)c(F)c2)cn1` (stereo not shown) [Compound E062]: the IC50 was 0.01 µM.
As for `CN(C[C@H](O)C(F)(F)F)C(=O)Nc1ccc(Oc2ccc(F)c(F)c2)cn1` [Compound E113], the figure is 0.575 µM; as for `CC1(C)CC1C(=O)Nc1ccc(Oc2ccc(F)c(F)c2)cn1` (stereo not shown) [Compound E029], 0.00398 µM; as for `CC1(C)C(C(=O)Nc2cnc(Oc3cncc(F)c3)cn2)C1(C)C` [Compound E222], 0.0126 µM.
For `CCN(C[C@@H](O)C(F)(F)F)C(=O)Nc1ccc(Oc2cncc(F)c2)cn1` [Compound E110], the IC50 is 5.13 µM.
The value for `CCN(C[C@@H](O)C(F)(F)F)C(=O)Nc1ccc(Oc2c(F)cccc2F)cn1` [Compound E135] was 0.00813 µM; that for `CCN(CC(C)(C)O)C(=O)Nc1ccc(Oc2ccc(F)c(F)c2)cn1` [Compound E112] was 0.155 µM; that for `NS(=O)(=O)N1CCC[C@@H]1C(=O)Nc1ccc(Oc2cc(F)cc(F)c2)cn1` [Compound E279] was 0.24 µM.
Turning to `CCN(C[C@@H](O)C(F)(F)F)C(=O)Nc1cnc(Oc2ccc(F)cc2F)cn1` [Compound E249], the IC50 was 0.00162 µM.
The value for `C[C@H](C(=O)Nc1ccccn1)c1ccccc1` [Compound E209] was 2.51 µM; that for `CCN(C[C@@H](O)C(F)(F)F)C(=O)Nc1ccc(Oc2ccc(F)cc2)cn1` [Compound E118] was 0.0501 µM; that for `COC(C)(C)C(=O)Nc1ccc(Oc2ccc(F)c(F)c2)cn1` [Compound E038] was 1 µM.
As for `NS(=O)(=O)N1CCC[C@H]1C(=O)Nc1ccc(Oc2cc(F)cc(F)c2)cn1` [Compound E283], the figure is 0.562 µM; as for `CC(C)C(=O)Nc1ccc(Oc2cccc(F)c2)cn1` [Compound E004], 0.0631 µM.
As for `CC(C)C(=O)Nc1ccc(Oc2ccc(F)cc2)cn1` [Compound E003], the figure is 0.316 µM; as for `CC(C)(C#N)C(=O)Nc1ccc(Oc2ccc(F)c(F)c2)cn1` [Compound E026], 2 µM.
As to `CC1(C(=O)Nc2ccc(Oc3ccc(F)c(F)c3)cn2)CC1` [Compound E032], the IC50 is 0.2 µM.
As for `CC1(C)C(C(=O)Nc2ccc(C(F)(F)F)cn2)C1(C)C` [Compound E205], the IC50 was 0.501 µM.
Consider `CCN(C[C@@H](O)C(F)(F)F)C(=O)Nc1ccc(Oc2cccc(F)c2C#N)cn1` [Compound E128], for which the IC50 is 0.12 µM.
As for `CC(C)C(=O)Nc1ccc(Oc2cncc(F)c2)cn1` [Compound E051], the figure is 3.98 µM.
The value for `CC(C)(F)C(=O)Nc1ccc(Oc2ccc(F)c(F)c2)cn1` [Compound E035] was 0.398 µM; that for `CC1(C)C(C(=O)Nc2ccc(Cl)cn2)C1(C)C` [Compound E204] was 0.00158 µM.
The value for `CCN(C[C@@H](O)C(F)(F)F)C(=O)Nc1ccc(-c2cc(F)cc(F)c2)cn1` [Compound E194] was 0.214 µM; that for `CN(C[C@@H](O)C(F)(F)F)C(=O)Nc1cnc(Oc2cc(F)ccc2F)cn1` [Compound E245] was 0.00851 µM.
Turning to `CC(C)C(=O)Nc1ccc(-c2cc(F)cc(C#N)c2)cn1` [Compound E174], the IC50 was 0.1 µM.
The value for `CCN(C[C@@H](O)C(F)(F)F)C(=O)Nc1cc(Oc2cccc(F)c2)c(F)cn1` [Compound E161] was 0.000891 µM.
For `CC1(C)C(C(=O)Nc2cnc(Oc3ccc(F)c(F)c3)cn2)C1(C)C` [Compound E224], the IC50 was 0.00398 µM.
The value for `CCN(C[C@@H](O)C(F)(F)F)C(=O)Nc1cc(Oc2ccccc2F)ncn1` [Compound E290, 1-ethyl-3-[6-(2-fluorophenoxy)pyrimidin-4-yl]-1-[(2R)-3,3,3-trifluoro-2-hydroxy-propyl]urea] was 0.692 µM.
As for `CC1(C)C(C(=O)Nc2ccc(-c3ccon3)cn2)C1(C)C` [Compound E275, N-(5-isoxazol-3-yl-2-pyridyl)-2,2,3,3-tetramethyl-cyclopropanecarboxamide], the figure is 0.0123 µM; as for `CC1(C)CC1C(=O)Nc1cnc(-c2cc(F)cc(F)c2)cn1` (single isomer, unassigned) [Compound E231, N-[5-(3,5-difluorophenyl)pyrazin-2-yl]-2,2-dimethyl-cyclopropanecarboxamide], 0.102 µM; as for `CC1(C)C(C(=O)Nc2ccc(-c3ncon3)cn2)C1(C)C` [Compound E271, 2,2,3,3-tetramethyl-N-[5-(1,2,4-oxadiazol-3-yl)-2-pyridyl]cyclopropanecarboxamide], 0.0316 µM.
The value for `CC(C)C(=O)Nc1cc(-c2ccccc2)ccn1` [Compound E168] was 7.94 µM; that for `CCN(C[C@@H](O)C(F)(F)F)C(=O)Nc1cc(Oc2ccc(F)cc2F)ccn1` [Compound E159] was 0.0141 µM; that for `CCN(C[C@@H](O)C(F)(F)F)C(=O)Nc1cc(Oc2cccc(F)c2)ccn1` [Compound E154] was 0.00129 µM.
With `CC1(C)C(C(=O)Nc2ccc(Oc3ccc(F)c(F)c3)cn2)C1(C)C` [Compound E025], the IC50 was 0.00251 µM.
Turning to `CC(C)C(=O)Nc1ccc(-c2ccc(F)cc2)cn1` [Compound E165], the IC50 is 1.26 µM.
The value for `CC(O)(C(=O)Nc1ccc(Oc2cccc(F)c2)cn1)C(F)(F)F` (stereo not shown) [Compound E013] was 0.794 µM.
The value for `CN(C[C@@H](O)C(F)(F)F)C(=O)Nc1ccc(Oc2ccc(F)c(F)c2)cn1` [Compound E111] was 0.0575 µM.
As for `CCN(C[C@@H](O)C(F)(F)F)C(=O)Nc1ccc(-c2ncco2)cn1` [Compound E197, 1-ethyl-3-(5-oxazol-2-yl-2-pyridyl)-1-[(2R)-3,3,3-trifluoro-2-hydroxy-propyl]urea], the figure is 3.09 µM; as for `CCN(C[C@H](C)O)C(=O)Nc1ccc(-c2ccccc2)cn1` [Compound E195], 5.01 µM; as for `CC1(C)CC1C(=O)Nc1cnc(Oc2cc(F)cc(F)c2)cn1` (stereo not shown) [Compound E219], 0.0251 µM.
Take `CC1(C)C(C(=O)Nc2ccc(-c3cn[nH]c3)cn2)C1(C)C` [Compound E175]: the IC50 was 2.51 µM.
The value for `CCN(C[C@H](C)O)C(=O)Nc1ccc(Oc2ccc(F)c(F)c2)cn1` [Compound E109] was 0.363 µM; that for `CC(C)(C#N)CC(=O)Nc1ccc(Oc2ccc(F)c(F)c2)cn1` [Compound E069] was 1.91 µM; that for `CC1(C)C(C(=O)Nc2ccc(F)cn2)C1(C)C` [Compound E211] was 0.00126 µM.
